Results reported in US12059464B2, “Combination therapy involving antibodies against Claudin 18.2 for treatment of cancer” (Astellas Pharma Inc., priority 2012, dated 2024).

How the values were obtained:
KatoIII cells [1] = experiment: Cell cycle analysis and CLDN18.2 surface expression of KatoIII cells cultivated with cytostatic compounds; details: for cell cycle arrest (phase of the cell cycle): KatoIII cells cultivated with cytostatic compound, DNA content by flow cytometry; for CLDN18.2 expression: KatoIII cells, cultivation for 96 hours
Protocol: Epirubicin (Pfizer) was tested at a concentration of 10 or 100 ng/ml, 5-FU (Neofluor from NeoCorp AG) was tested at a concentration of 10 or 100 ng/ml, and oxaliplatin (Hospira) was tested at a concentration of 50 or 500 ng/ml.
As secondary reagent goat-anti-huIgG-APC from Dianova was used.
Cell cycle stages were determined based on measurement of cellular DNA content. […] Cell cycle analysis was done using the CycleTEST PLUS DNA Reagent Kit from BD Biosciences following the manufacturer's protocol. Flow cytometry acquisition and analysis were performed by using BD FACS CantoII (BD Biosciences) and FlowJo (Tree Star) software.

KatoIII cells [2] = experiment: IMAB362-induced ADCC (luciferase) on KatoIII cells pretreated with Irinotecan, Docetaxel or Cisplatin; assay type: cell-based, human; details: KatoIII pretreated for 3 days; for level of viable cells compared to medium cultivated target cells: Irinotecan 1000 ng/ml, Docetaxel 5 ng/ml, Cisplatin 2000 ng/ml; for effect of pretreatment on potency of IMAB362 to induce ADCC: human PBMC effectors
Protocol: Peripheral blood mononuclear cells (PBMCs) including NK cells, monocytes, mononuclear cells or other effector cells from healthy human donors were purified by Ficoll Hypaque density centrifugation. Washed effector cells were seeded in X-Vivo medium. KatoIII cells which express CLDN18.2 endogenously and are of gastric origin were used as target cells in this setting. Target cells stably expressed luciferase, lucifer yellow, which is oxidized by viable cells only.

KatoIII cells [3] = experiment: KatoIII cells pretreated with Irinotecan or Docetaxel: cell growth and cell cycle arrest; assay type: cell-based, human; details: KatoIII cells pretreated for 4 days
Protocol: Cell cycle stages were determined based on measurement of cellular DNA content. This allows one to discriminate between cells in the G1-, S- or G2-phase of the cell cycle. In the S-phase DNA duplication occurs whereas in the G2-phase cells grow and prepare for mitosis. Cell cycle analysis was done using the CycleTEST PLUS DNA Reagent Kit from BD Biosciences following the manufacturer's protocol. Flow cytometry acquisition and analysis were performed by using BD FACS CantoII (BD Biosciences) and FlowJo (Tree Star) software.
KatoIII cells were pretreated for 4 days with Irinotecan or Docetaxel and analysed for CLDN18.2 expression and cell cycle arrest.

Vγ9Vδ2 T cells = experiment: Enrichment of Vγ9Vδ2 T cells in co-culture with monocytes ± ZA; assay type: cell-based, human; details: co-cultures 14 days, ±1 μM ZA
Protocol: The enrichment of Vγ9Vδ2 T cells in the co-cultures after 14 days was determined by multicolor FACS, whereas the expansion of the culture was considered in the calculation. The enrichment factor of Vγ9Vδ2 T cells cultured with monocytes in a 1:4 ratio was set to 100% for each experiment. […] This effect was clearly ZA-dependent; cf. FIG. 11a.

NUGC-4 cells = assay type: cell-based, human
Protocol: (§1) Furthermore, human stomach cancer cells (NUGC-4-luciferase) and murine stomach cancer cells (CLS103-calcein stained) were pretreated with or w/o 5 μM ZA for 2 days. Human Vγ9Vδ2 T cells were MACS purified (day 14) and co-cultured with the cancer cells for 24 h. Cytotoxicity of Vγ9Vδ2 T cells towards non-treated and ZA-treated target cells was determined by measuring remaining luciferase activity or calcein fluorescence; cf. FIG. 11b. Target cells (NUGC-4 and CLS103) were pretreated with or w/o 5 μM ZA for 2 days and subsequently incubated for 4 h with mitomycin c ([…]) to stop proliferation. MACS purified human 14d old resting Vγ9Vδ2 T cells and ^3H-thymidine were added to the target cells and co-cultures were incubated for 48 h at 37° C. Proliferation was determined by measuring ^3H thymidine incorporation in the DNA using a MicroBeta scintillation counter. Proliferation of target cells not treated with ZA and w/o Vγ9Vδ2 T cells was set to 100%; cf. FIG. 11c.

PBMCs = experiment: Expansion of PBMC cultures with ZA/IL-2; assay type: cell-based, human; details: 14 days, 300 U/ml IL-2
Protocol: PBMCs were harvested from healthy human donors and cultures were treated with a single dose of ZA. […] FIG. 8a. […] FIG. 8b. Increase in cell numbers was determined by counting living cells on day 6, 8, 11 and 14.

CLS103 cells = test system: CLS103 cells
Protocol: as §1

[4] = test system: HEK293~CLDN18.2 transfectants; experiment: Early treatment of HEK293~CLDN18.2 tumor xenografts; assay type: in vivo, nude mice; details: isotype control, 200 μg twice per week for 6 weeks
Source text: Moreover, advanced tumor treatment experiments were initiated up to 9 days after tumor cell inoculation when tumors had reached volumes of about 60-120 mm^3.
Nude mice were subcutaneously inoculated with 1×10^7 HEK293˜CLDN18.2 transfectants. Treatment of 10 mice per group started 3 days after tumor inoculation. […] Not only time to death was prolonged, but 4 of 10 mice survived the entire observation period of 210 days.

NUGC-4 xenografts = experiment: In vivo tumor targeting of Dyelight 680-labeled antibodies (fluorescence imaging); parameters: species or system nude mice; details: time not stated

| Molecule | cell cycle arrest (phase of the cell cycle) (KatoIII cells [1]) | claudin18.2 expression compared to medium cultivated cells (KatoIII cells [2]) | level of viable cells compared to medium cultivated target cells (KatoIII cells [2]) | effect of pretreatment on potency of IMAB362 to induce ADCC (KatoIII cells [2]) | other results |
| --- | --- | --- | --- | --- | --- |
| O=c1[nH]cc(F)c(=O)[nH]1 [5-FU, 5-fluoro-1H-pyrimidine-2,4-dione] | blocked predominantly in the S-phase |  |  |  | CLDN18.2 expression (KatoIII cells [1]): stabilize CLDN18.2-expression |
| N.N.[Cl][Pt][Cl] [Cisplatin, cis-diamminedichloroplatinum(II)] |  | increased | lower level of viable cells | augmented the potency of IMAB362 to induce ADCC |  |
| CC(=O)O[C@@]12CO[C@@H]1C[C@H](O)[C@@]1(C)C(=O)[C@H](O)C3=C(C)[C@@H](OC(=O)[C@H](O)[C@@H](NC(=O)OC(C)(C)C)c4ccccc4)C[C@@](O)([C@@H](OC(=O)c4ccccc4)[C@H]21)C3(C)C [Docetaxel, docetaxel] |  | increased | lower level of viable cells | augmented the potency of IMAB362 to induce ADCC | cell cycle arrest (phase) (KatoIII cells [3]): cell cycle arrest in the G2-phase; inhibition of cell growth (KatoIII cells [3]): dose dependent inhibition of cell growth |
| COc1cccc2c1C(=O)c1c(O)c3c(c(O)c1C2=O)C[C@@](O)(C(=O)CO)C[C@@H]3O[C@H]1C[C@H](N)[C@@H](O)[C@H](C)O1 [Epirubicin] | cell cycle arrest predominantly in the G2-phase |  |  |  | CLDN18.2 expression (KatoIII cells [1]): stabilize CLDN18.2-expression |
| CCc1c2c(nc3ccc(OC(=O)N4CCC(N5CCCCC5)CC4)cc13)-c1cc3c(c(=O)n1C2)COC(=O)[C@]3(O)CC [Irinotecan, (S)-4,11-diethyl-3,4,12,14-tetrahydro-4-hydroxy-3,14-dioxo1H-pyrano[3′,4′:6,7]-indolizino[1,2-b]quinolin-9-yl-[1,4′bipiperidine]-1′-carboxylate] |  | increased | lower level of viable cells | augmented the potency of IMAB362 to induce ADCC | cell cycle arrest (phase) (KatoIII cells [3]): cell cycle arrest in the S/G2-phase; inhibition of cell growth (KatoIII cells [3]): dose dependent inhibition of cell growth |
| O=C1[O][Pt]2([NH][C@@H]3CCCC[C@H]3[NH]2)[O]C1=O [Oxaliplatin, [(1R,2R)-cyclohexane-1,2-diamine](ethanedioato-O,O′)platinum(II)] | enrichment of cells predominantly in the G1- and G2-phases |  |  |  |  |
| O=P(O)(O)C(O)(Cn1ccnc1)P(=O)(O)O [ZA, [1-hydroxy-2-(1H-imidazol-1-yl)ethane-1,1-diyl]bis(phosphonic acid)] |  |  |  |  | enrichment of Vγ9Vδ2 T cells with increase of monocytes in the culture (ZA-dependent) (Vγ9Vδ2 T cells): more than 10 fold; activation of Vγ9Vδ2 T cell cytotoxicity by ZA-pulsed cancer cells (NUGC-4 cells): 5-10 fold; lower expansion of cells in medium without ZA versus with ZA (PBMCs): about 2 fold; activation of Vγ9Vδ2 T cells (cytotoxicity and proliferation) by ZA-pulsed cancer cells (CLS103 cells): failed to elicit these effects |
| infliximab: isotype control antibody [reference compound] |  |  |  |  | time within which all mice died [4]: 70 to 80 days |
| rituximab: Dyelight 680-labeled negative control antibody (NUGC-4 negative for CD20) [reference compound] |  |  |  |  | signal of labeled antibody (negative control, NUGC-4 negative for CD20) (NUGC-4 xenografts): No signal is detected |
